Test results taken from ChEMBL document CHEMBL4813957, “Antitubercular properties of thiazolidin-4-ones - A review” (Eur J Med Chem, 2021).
In brackets after ≈: the same amount, converted by molar mass.

Assays:
Type in all cases: functional
[1] = system: Mycobacterium tuberculosis variant bovis BCG; experiment: Antimycobacterial activity against Mycobacterium bovis BCG ATCC 35734 measured on 12th day by nitrate reductase assay; details: ATCC 35734, 288 h, time 12 day
[2] = system: Mycobacterium tuberculosis; experiment: Antimycobacterial activity against extensively drug resistant Mycobacterium tuberculosis measured up to 2 weeks; details: 336 h, time weeks <=2
[3] = system: Mycobacterium tuberculosis; experiment: Antimycobacterial activity against multidrug resistant Mycobacterium tuberculosis measured up to 2 weeks; details: 336 h, time weeks <=2
[4] = system: Mycobacterium tuberculosis; experiment: Antimycobacterial activity against ethambutol/pyrazinamide/kanamycin/streptomycin/ofloxacin/moxifloxacin/levofloxacin resistant Mycobacterium tuberculosis measured up to 2 weeks; details: 336 h, time weeks <=2
[5] = system: Mycobacterium tuberculosis variant bovis BCG; experiment: Antimycobacterial activity against Mycobacterium bovis BCG ATCC35743 by nitrate reductase assay

| Structure (SMILES) | MIC [1] [µg/mL] | other results |
| --- | --- | --- |
| O=C1CSC(c2ccc(OCc3cc4ccccc4n4nnnc34)cc2)N1c1ccc([N+](=O)[O-])cc1 (stereo not drawn) | 3.8 (≈ 7.62 µM) | – |
| O=C(O)CCCCCC1NC(=O)CS1 (stereo not drawn) | – | MIC [2]: 0.096 µM (≈ 0.0209 µg/mL); MIC [3]: 0.6 µM (≈ 0.13 µg/mL); MIC [4]: 0.2 µM (≈ 0.0435 µg/mL) |
| O=C1NC(=S)S/C1=C\c1ccc([N+](=O)[O-])cc1 | – | IC90 [5]: 25.7 µg/mL (≈ 96.5 µM) |
| O=C1CSC(c2ccc(OCc3cc4ccccc4n4nnnc34)cc2)N1c1ccccc1 (stereo not drawn) | 9.13 (≈ 20.1 µM) | – |
| NC(=O)c1cnccn1 [PYRAZINAMIDE] | 20 (≈ 162 µM) | – |
| CCOc1ccc(N2C(=O)CSC2c2ccc(OCc3cc4ccccc4n4nnnc34)cc2)cc1 (stereo not drawn) | 7.09 (≈ 14.2 µM) | – |
